Experimental data as given in BigSolDB 2.1.

O=c1c2ccccc2nc2n1CCc1c-2[nH]c2ccccc12
solubility (mole fraction)
Details	283.2 K	288.2 K	293.2 K	298.2 K	303.2 K	313.2 K	323.2 K
in acetone	0.000735	–	0.000972	–	0.00129	0.00149	0.00196
in chloroform	0.000287	–	0.000511	–	0.000922	0.00211	0.00485
in cyclohexane	6.24e-06	–	1.14e-05	–	1.73e-05	2.52e-05	3.78e-05
in dichloromethane	0.00142	0.00162	0.00182	0.00196	0.00224	–	–
in diethyl ether	0.00024	0.000273	0.000313	0.000396	0.000454	–	–
in ethanol	9.75e-05	–	0.000143	–	0.000203	0.000279	0.000394
in ethyl acetate	0.00104	–	0.00123	–	0.00153	0.00195	0.00255
in isopropanol	7.94e-05	–	0.000127	–	0.000192	0.000292	0.000459
in methanol	6.61e-05	–	8.18e-05	–	0.000117	0.000161	0.000229
in n-butanol	0.000186	–	0.000266	–	0.000369	0.000577	0.000955
in n-hexane	6.17e-06	–	1.21e-05	–	1.62e-05	2.63e-05	3.97e-05
in n-pentane	4.31e-06	6.89e-06	9.67e-06	1.53e-05	2.47e-05	–	–
